From publication PMC7969007, “The CRISPR ancillary effector Can2 is a dual-specificity nuclease potentiating type III CRISPR defence” (Nucleic Acids Research, 2021)

What was measured:
[1] = biological target: T1, SthCan2 (Sulfobacillus thermosulfidooxidans, UniProt A0A8I3AZU2); assay: X-ray crystal structure (co-crystal, […] A); format: binding; settings: SeMet protein, protein:cA4 1:1 molar; one cA4 per dimer at the CARF dimer interface; allosteric activator of Mn2+-dependent nuclease; not degraded by the enzyme
T1 construct: synthetic gene in pEHisV5TEV, His tag cut by TEV, E. coli C43 (SeMet in B834 for the crystal); homodimer; residues 3-366 traced
T1 sequence (A0A8I3AZU2 1-366): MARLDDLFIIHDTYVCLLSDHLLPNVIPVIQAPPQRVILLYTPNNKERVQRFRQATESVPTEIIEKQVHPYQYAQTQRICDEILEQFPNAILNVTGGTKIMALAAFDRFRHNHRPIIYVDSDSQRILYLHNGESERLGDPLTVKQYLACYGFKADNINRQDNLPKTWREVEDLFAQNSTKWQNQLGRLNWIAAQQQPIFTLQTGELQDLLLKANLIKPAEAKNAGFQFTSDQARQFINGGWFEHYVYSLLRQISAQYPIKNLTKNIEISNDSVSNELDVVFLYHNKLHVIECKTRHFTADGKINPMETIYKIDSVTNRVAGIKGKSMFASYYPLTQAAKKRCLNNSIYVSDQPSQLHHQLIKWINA

[2] = biological target: Can2 (CRISPR ancillary nuclease 2) from Sulfobacillus thermosulfidooxidans, selenomethionine labelled (Sulfobacillus thermosulfidooxidans); assay: crystal structure; SeMet SthCan2 at 8 mg/ml co-crystallised with cA4 at 1:1 protein:cA4; 20% (w/v) PEG 3350, 0.2 M ammonium nitrate pH 6.3, room temperature; 2.02 Å; four protein molecules in the asymmetric unit

stoichiometry N [2] | Compound | X-ray crystal structure (co-crystal, 2.02 A) [1]
– | Nc1ncnc2c1ncn2[C@@H]1O[C@@H]2COP(=O)(O)O[C@H]3[C@@H](O)[C@H](n4cnc5c(N)ncnc54)O[C@@H]3COP(=O)(O)O[C@H]3[C@@H](O)[C@H](n4cnc5c(N)ncnc54)O[C@@H]3COP(=O)(O)O[C@H]3[C@@H](O)[C@H](n4cnc5c(N)ncnc54)O[C@@H]3COP(=O)(O)O[C@H]2[C@H]1O [cA4] | form two dimers each bound to a molecule of cA4
2 | Can2 (CRISPR ancillary nuclease 2) from Sulfobacillus thermosulfidooxidans, selenomethionine labelled (enzyme) | –
